Usually inhibition stands for the drop in the measured response relative to a control, in per cent.

The test system of assay [1] is PMA-induced release of endogenous HB-EGF from human THP-1 monocytic cells. Kind of assay: ELISA-based HB-EGF release assay, PMA-induced, THP-1 cells. The class given is cell-based. Conditions: PMA 25 ng/ml, 6 hours, murine (m) and chimeric (ch) antibodies and IgG at 3 μg/ml, Batimastat at 10 μM. How it is done:
In brief, on day 1, Nunc black MaxiSorp® 96-well plates (Thermo Fisher Scientific, USA) were coated for 7 hours with 100 μl per well of rat anti-human HB-EGF capture antibody (provided as part of the DuoSet ELISA kit) at 2 μg/ml TBS at room temperature. Capture antibody solution was removed and MaxiSorp® plates were blocked with 300 μl per well of TBS, 1% BSA at room temperature for 3 hours. […]
Following another round of 4 times washing with 350 μl TBS-T (Carl Roth, Germany) per well on a 96-head plate washer (Tecan Group, Switzerland) and careful removal of all buffer traces after the fourth cycle, 100 μl AttoPhos substrate solution (Promega, USA) per well was added for incubation in the dark at room temperature for 1 hour. Using an infinite M1000 (Tecan Group, Switzerland) microplate reader, the fluorescence of each well was collected at an excitation wavelength of 435 nm and an emission wavelength of 555 nm.
Background: ELISA stands for enzyme-linked immunosorbent assay.

The test system of assay [2] is PMA-induced release of endogenous HB-EGF from PBMCs from patients suffering from rheumatoid arthritis. Nature of the assay: ELISA-based HB-EGF release assay, PMA-induced, PBMCs from RA-patients. The class given is cell-based. Particulars: PBMC; PMA 25 ng/ml, 6 hours; chimeric antibodies (CHO) and human IgG at 1 μg/ml; Batimastat at 10 μM. On the procedure: In brief, on day 1, Nunc black MaxiSorp® 96-well plates (Thermo Fisher Scientific, USA) were coated overnight with 100 μl per well of rat anti-human HB-EGF capture antibody (provided as part of the DuoSet ELISA kit) at 2 μg/ml TBS at 4° C. On day 2, the capture antibody solution was removed and MaxiSorp® plates were blocked with 300 μl per well of TBS, 1% BSA at room temperature for 3 hours. Meanwhile, 80,000 PBMC from patients suffering from rheumatoid arthritis (STEMCELL Technologies, Canada) cells in 80 μl of normal growth medium were seeded in each well of Greiner CELLSTAR V-bottom 96-well plates (Thermo Fisher Scientific, USA) and pre-incubated with 20 μl per well of standard growth medium supplemented with Batimastat (BB94, Abcam, UK) at 50 μM as positive control (for a final concentration of 10 μM in the resulting 100 μl sample volume), human IgG antibody (Thermo Fisher Scientific, USA) at 5 μg/ml as isotype control (for a final concentration of 1 μg/ml in the resulting 100 μl sample volume) or antibodies of the invention at 5 μg/ml (for a final concentration of 1 μg/ml in the resulting 100 μl sample volume) at 37° C., 5% CO2 for 30 minutes. […] Using an infinite M1000 (Tecan Group, Switzerland) microplate reader, the fluorescence of each well was collected at an excitation wavelength of 435 nm and an emission wavelength of 555 nm.

Structures are written as SMILES.

For `CNC(=O)[C@H](Cc1ccccc1)NC(=O)[C@H](CC(C)C)[C@H](CSc1cccs1)C(=O)NO` [Batimastat], the inhibition at 10 µM in assay [1] is 98.9%; in assay [2], 102%.

The record behind these values is patent US20240287172A1, “PROTEIN BINDERS TO IRHOM2 EPITOPES” (SCIRHOM GMBH, priority 2019, published 2024).
